According to ChEMBL document CHEMBL1201861, “Genomics of Drug Sensitity in Cancer screening data, Wellcome Trust Sanger Institute”:
pIC50: −log10 of the molar value.

How the values were obtained:
Assay in all cases: cells
Settings in all cases: Homo sapiens
[1] = system: SW 954; assay type: functional, cell-based;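 further: growth inhibition of SW954 human cancer cells, read out as cell viability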
Description: SANGER: Inhibition of human SW954 cell growth in a cell viability assay.

[2] = system: OMC-1; assay type: functional, cell-based;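 further: growth inhibition of the OMC-1 cell line, measured by a cell viability assay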
Description: SANGER: Inhibition of human OMC-1 cell growth in a cell viability assay.

[3] = system: SBC-1; assay type: functional, cell-based;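 further: cell viability assay measuring growth inhibition of the SBC-1 cell line, IC50 being the concentration that halves growth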
Description: SANGER: Inhibition of human SBC-1 cell growth in a cell viability assay.

[4] = system: GI-1; assay type: functional, cell-based;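 further: growth inhibition of human GI-1 cells, measured with a cell viability readout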
Description: SANGER: Inhibition of human GI-1 cell growth in a cell viability assay.

[5] = system: EOL1; assay type: functional, cell-based;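 further: growth inhibition of EoL-1 cells, read out by a cell viability assay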
Description: SANGER: Inhibition of human EoL-1-cell cell growth in a cell viability assay.

[6] = system: ES1; assay type: functional, cell-based;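 further: growth inhibition of ES1 cells, read out with a cell viability assay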
Description: SANGER: Inhibition of human ES1 cell growth in a cell viability assay.

[7] = system: IST-SL1; assay type: functional, cell-based;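 further: growth inhibition of human IST-SL1 cells, read out with a cell viability assay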
Description: SANGER: Inhibition of human IST-SL1 cell growth in a cell viability assay.

[8] = system: TK-10; assay type: functional, cell-based;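 further: growth inhibition of TK-10 cells, read out in a cell viability assay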
Description: SANGER: Inhibition of human TK10 cell growth in a cell viability assay.

[9] = system: KG-1; assay type: functional, cell-based;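 further: growth inhibition of KG-1 cells, read out by a cell viability assay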
Description: SANGER: Inhibition of human KG-1 cell growth in a cell viability assay.

[10] = system: SK-MEL-2; assay type: functional, cell-based;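 further: growth inhibition of human SK-MEL-2 cells measured with a cell viability assay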
Description: SANGER: Inhibition of human SK-MEL-2 cell growth in a cell viability assay.

[11] = system: SH-4; assay type: functional, cell-based;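 further: growth inhibition of SH-4 cells, read out with a cell viability assay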
Description: SANGER: Inhibition of human SH-4 cell growth in a cell viability assay.

[12] = system: 697; assay type: functional, cell-based
Description: SANGER: Inhibition of human 697 cell growth in a cell viability assay.

[13] = system: GR-ST; assay type: functional, cell-based
Description: SANGER: Inhibition of human GR-ST cell growth in a cell viability assay.

[14] = system: ES5; assay type: functional, cell-based;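 further: growth inhibition of human ES5 cells, read out by a cell viability assay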
Description: SANGER: Inhibition of human ES5 cell growth in a cell viability assay.

[15] = system: SCH; assay type: functional, cell-based;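 further: growth inhibition of human SCH cells, read out in a cell viability assay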
Description: SANGER: Inhibition of human SCH cell growth in a cell viability assay.

[16] = system: SHP77; assay type: functional, cell-based, SHP-77;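 further: growth inhibition of human SHP-77 cells measured by a cell viability assay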
Description: SANGER: Inhibition of human SHP-77 cell growth in a cell viability assay.

[17] = system: A704; assay type: functional, cell-based;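 further: growth inhibition of human A704 cells, read out with a cell viability assay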
Description: SANGER: Inhibition of human A704 cell growth in a cell viability assay.

[18] = system: LAN-6; assay type: functional, cell-based;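 further: growth inhibition of LAN-6 cells, determined with a cell viability assay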
Description: SANGER: Inhibition of human LAN-6 cell growth in a cell viability assay.

[19] = system: LOX IMVI; assay type: functional, cell-based
Description: SANGER: Inhibition of human LOXIMVI cell growth in a cell viability assay.

[20] = system: MZ1-PC; assay type: functional, cell-based;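 further: cell viability assay measuring growth inhibition of human MZ1-PC cells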
Description: SANGER: Inhibition of human MZ1-PC cell growth in a cell viability assay.

[21] = system: NCI-H1838; assay type: functional, cell-based;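 further: growth inhibition of NCI-H1838 cells, determined with a cell viability readout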
Description: SANGER: Inhibition of human NCI-H1838 cell growth in a cell viability assay.

[22] = system: JAR; assay type: functional, cell-based;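 further: growth inhibition of human JAR cells determined with a cell viability assay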
Description: SANGER: Inhibition of human JAR cell growth in a cell viability assay.

[23] = system: KLE; assay type: functional, cell-based;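 further: growth inhibition of human KLE cells, read out with a cell viability assay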
Description: SANGER: Inhibition of human KLE cell growth in a cell viability assay.

[24] = system: KS-1; assay type: functional, cell-based;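 further: growth inhibition of KS-1 cells, read out with a cell viability assay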
Description: SANGER: Inhibition of human KS-1 cell growth in a cell viability assay.

[25] = system: NCI-H1770; assay type: functional, cell-based;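 further: growth inhibition of NCI-H1770 cells determined with a viability readout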
Description: SANGER: Inhibition of human NCI-H1770 cell growth in a cell viability assay.

[26] = system: KARPAS-299; assay type: functional, cell-based
Description: SANGER: Inhibition of human KARPAS-299 cell growth in a cell viability assay.

[27] = system: MC116; assay type: functional, cell-based;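 further: growth inhibition of MC116 cells, read out with a cell viability assay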
Description: SANGER: Inhibition of human MC116 cell growth in a cell viability assay.

[28] = system: MN-60; assay type: functional, cell-based;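 further: growth inhibition of the MN-60 cell line, determined with a cell viability assay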
Description: SANGER: Inhibition of human MN-60 cell growth in a cell viability assay.

[29] = system: ES8; assay type: functional, cell-based;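 further: growth inhibition of human ES8 cells, read out with a cell viability assay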
Description: SANGER: Inhibition of human ES8 cell growth in a cell viability assay.

[30] = system: GOTO; assay type: functional, cell-based;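 further: growth inhibition of GOTO cells, read out by a cell viability assay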
Description: SANGER: Inhibition of human GOTO cell growth in a cell viability assay.

[31] = system: LU-134-A; assay type: functional, cell-based
Description: SANGER: Inhibition of human LU-134-A cell growth in a cell viability assay.

[32] = system: MOLT-16; assay type: functional, cell-based;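 further: growth inhibition of human MOLT-16 cells, read out with a cell viability assay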
Description: SANGER: Inhibition of human MOLT-16 cell growth in a cell viability assay.

[33] = system: KY821; assay type: functional, cell-based;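 further: growth inhibition of human KY821 cells, read out by a cell viability assay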
Description: SANGER: Inhibition of human KY821 cell growth in a cell viability assay.

[34] = system: KNS-42; assay type: functional, cell-based;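 further: growth inhibition of KNS-42 cells, read out with a cell viability assay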
Description: SANGER: Inhibition of human KNS-42 cell growth in a cell viability assay.

[35] = system: NTERA-2-cl-D1; assay type: functional, cell-based;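 further: inhibition of cell growth, measured with a cell viability assay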
Description: SANGER: Inhibition of human NTERA-S-cl-D1 cell growth in a cell viability assay.

[36] = system: no-11; assay type: functional, cell-based;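 further: growth inhibition of human NO-11 cells, read out with a cell viability assay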
Description: SANGER: Inhibition of human no-11 cell growth in a cell viability assay.

[37] = system: KMOE-2; assay type: functional, cell-based;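 further: growth inhibition of human KMOE-2 cells, read out with a cell viability assay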
Description: SANGER: Inhibition of human KMOE-2 cell growth in a cell viability assay.

[38] = system: GAK; assay type: functional, cell-based;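 further: cell growth inhibition read out by a cell viability assay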
Description: SANGER: Inhibition of human GAK cell growth in a cell viability assay.

[39] = system: NCI-H1155; assay type: functional, cell-based;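 further: cell growth inhibition measured by a viability assay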
Description: SANGER: Inhibition of human NCI-H1155 cell growth in a cell viability assay.

[40] = system: ETK-1; assay type: functional, cell-based;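 further: growth inhibition of human ETK-1 cells, read out with a cell viability assay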
Description: SANGER: Inhibition of human ETK-1 cell growth in a cell viability assay.

[41] = system: NCI-H1355; assay type: functional, cell-based;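 further: growth inhibition of human NCI-H1355 cells, read out by a cell viability assay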
Description: SANGER: Inhibition of human NCI-H1355 cell growth in a cell viability assay.

[42] = system: Ramos-2G6-4C10; assay type: functional, cell-based;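 further: growth inhibition of the cell line, measured by a cell viability read-out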
Description: SANGER: Inhibition of human Ramos-2G6-4C10 cell growth in a cell viability assay.

[43] = system: J-RT3-T3-5; assay type: functional, cell-based;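 further: cell viability assay measuring growth inhibition of human J-RT3-T3-5 cells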
Description: SANGER: Inhibition of human J-RT3-T3-5 cell growth in a cell viability assay.

[44] = system: SNU-C2B; assay type: functional, cell-based;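 further: cell viability readout used to measure compound-driven suppression of SNU-C2B cell proliferation, IC50 marking half-maximal growth inhibition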
Description: SANGER: Inhibition of human SNU-C2B cell growth in a cell viability assay.

[45] = system: LS-513; assay type: functional, cell-based
Description: SANGER: Inhibition of human LS-513 cell growth in a cell viability assay.

[46] = system: HDLM-2; assay type: functional, cell-based;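 further: cell viability assay measuring suppression of HDLM-2 proliferation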
Description: SANGER: Inhibition of human HDLM-2 cell growth in a cell viability assay.

[47] = system: LB831-BLC; assay type: functional, cell-based;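 further: growth inhibition of LB831-BLC cells, read out with a cell viability assay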
Description: SANGER: Inhibition of human LB831-BLC cell growth in a cell viability assay.

[48] = system: HCC2218; assay type: functional, cell-based;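 further: cell viability assay read-out, with IC50 given as the concentration that inhibits growth of the cell line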
Description: SANGER: Inhibition of human HCC2218 cell growth in a cell viability assay.

[49] = system: Calu-6; assay type: functional, cell-based;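 further: growth of human Calu-6 cells, read out by a cell viability assay, IC50 marking inhibition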
Description: SANGER: Inhibition of human Calu-6 cell growth in a cell viability assay.

[50] = system: MHH-PREB-1; assay type: functional, cell-based;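 further: cell viability assay measuring inhibition of proliferation of human MHH-PREB-1 cells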
Description: SANGER: Inhibition of human MHH-PREB-1 cell growth in a cell viability assay.

[51] = system: KU812 cell line; assay type: functional, cell-based;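 further: growth inhibition of KU812 cells, read out with a cell viability assay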
Description: SANGER: Inhibition of human KU812 cell growth in a cell viability assay.

[52] = system: RPMI-8226; assay type: functional, cell-based
Description: SANGER: Inhibition of human RPMI-8226 cell growth in a cell viability assay.

[53] = system: HL-60; assay type: functional, cell-based;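 further: growth inhibition of human HL-60 cells, read out with a cell viability assay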
Description: SANGER: Inhibition of human HL-60 cell growth in a cell viability assay.

[54] = system: RXF 393; assay type: functional, cell-based;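 further: growth inhibition of human RXF 393 cells, read out with a cell viability assay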
Description: SANGER: Inhibition of human RXF393 cell growth in a cell viability assay.

[55] = system: NCI-H1648; assay type: functional, cell-based
Description: SANGER: Inhibition of human NCI-H1648 cell growth in a cell viability assay.

[56] = system: GB-1; assay type: functional, cell-based
Description: SANGER: Inhibition of human GB-1 cell growth in a cell viability assay.

[57] = system: LB1047-RCC; assay type: functional, cell-based
Description: SANGER: Inhibition of human LB1047-RCC cell growth in a cell viability assay.

[58] = system: SK-PN-DW; assay type: functional, cell-based
Description: SANGER: Inhibition of human SK-PN-DW cell growth in a cell viability assay.

[59] = system: OCUB-M; assay type: functional, cell-based
Description: SANGER: Inhibition of human OCUB-M cell growth in a cell viability assay.

[60] = system: NCI-H69; assay type: functional, cell-based
Description: SANGER: Inhibition of human NCI-H69 cell growth in a cell viability assay.

[61] = system: C8166; assay type: functional, cell-based
Description: SANGER: Inhibition of human C8166 cell growth in a cell viability assay.

[62] = system: NOMO-1; assay type: functional, cell-based
Description: SANGER: Inhibition of human NOMO-1 cell growth in a cell viability assay.

[63] = system: DMS-79; assay type: functional, cell-based
Description: SANGER: Inhibition of human DMS-79 cell growth in a cell viability assay.

[64] = system: JVM-2; assay type: functional, cell-based
Description: SANGER: Inhibition of human JVM-2 cell growth in a cell viability assay.

[65] = system: EC-GI-10; assay type: functional, cell-based
Description: SANGER: Inhibition of human EC-GI-10 cell growth in a cell viability assay.

[66] = system: SNU1; assay type: functional, cell-based
Description: SANGER: Inhibition of human NCI-SNU-1 cell growth in a cell viability assay.

Fc1cc(-c2cc[nH]/c(=N/c3ccc(-n4cnc(N5CCOCC5)n4)cc3)n2)cc(N2CCOCC2)c1
pIC50 [1]: 6.32 | pIC50 [2]: 5.40 | pIC50 [3]: < 5.29 | pIC50 [4]: 6.77 | pIC50 [5]: 6.30 | pIC50 [6]: 6.16 | pIC50 [7]: 6.11 | pIC50 [8]: 5.92 | pIC50 [9]: 6.32 | pIC50 [10]: 6.20 | pIC50 [11]: 6.39 | pIC50 [12]: 6.43 | pIC50 [13]: 6.19 | pIC50 [14]: < 5.29 | pIC50 [15]: 5.49 | pIC50 [16]: 6.08 | pIC50 [17]: 6.36 | pIC50 [18]: 5.75 | pIC50 [19]: 6.32 | pIC50 [20]: 6.71 | pIC50 [21]: < 5.29 | pIC50 [22]: 5.48 | pIC50 [23]: 5.74 | pIC50 [24]: 6.80 | pIC50 [25]: 6.09 | pIC50 [26]: 6.42 | pIC50 [27]: 6.39 | pIC50 [28]: 6.05 | pIC50 [29]: 6.87 | pIC50 [30]: 6.09 | pIC50 [31]: 6.23 | pIC50 [32]: 6.13 | pIC50 [33]: < 5.29 | pIC50 [34]: 5.96 | pIC50 [35]: 6.50 | pIC50 [36]: 5.87 | pIC50 [37]: 5.97 | pIC50 [38]: 6.10 | pIC50 [39]: 5.58 | pIC50 [40]: 5.98 | pIC50 [41]: 6.06 | pIC50 [42]: 6.41 | pIC50 [43]: 6.16 | pIC50 [44]: 6.20 | pIC50 [45]: 5.94 | pIC50 [46]: 6.14 | pIC50 [47]: 6.38 | pIC50 [48]: 5.96 | pIC50 [49]: 6.29 | pIC50 [50]: 6.37 | pIC50 [51]: 6.47 | pIC50 [52]: 5.99 | pIC50 [53]: 6.26 | pIC50 [54]: 7.17 | pIC50 [55]: 6.33 | pIC50 [56]: 6.48 | pIC50 [57]: 6.40 | pIC50 [58]: 6.17 | pIC50 [59]: 5.52 | pIC50 [60]: 5.93 | pIC50 [61]: 6.35 | pIC50 [62]: 6.33 | pIC50 [63]: 5.37 | pIC50 [64]: 5.48 | pIC50 [65]: 5.65 | pIC50 [66]: 6.34

Cc1[nH]c(/C=C2\C(=O)Nc3ccc(S(=O)(=O)Cc4c(Cl)cccc4Cl)cc32)c(C)c1C(=O)N1CCC[C@@H]1CN1CCCC1 [PHA-665752]
pIC50 [1]: < 5.70 | pIC50 [2]: < 5.70 | pIC50 [3]: < 5.70 | pIC50 [4]: < 5.70 | pIC50 [5]: < 5.70 | pIC50 [6]: < 5.70 | pIC50 [7]: < 5.70 | pIC50 [8]: < 5.70 | pIC50 [9]: < 5.70 | pIC50 [10]: < 5.70 | pIC50 [11]: < 5.70 | pIC50 [12]: < 5.70 | pIC50 [13]: < 5.70 | pIC50 [14]: < 5.70 | pIC50 [16]: < 5.70 | pIC50 [17]: < 5.70 | pIC50 [18]: < 5.70 | pIC50 [19]: < 5.70 | pIC50 [20]: < 5.70 | pIC50 [21]: < 5.70 | pIC50 [22]: < 5.70 | pIC50 [23]: < 5.70 | pIC50 [24]: < 5.70 | pIC50 [25]: < 5.70 | pIC50 [26]: < 5.70 | pIC50 [27]: < 5.70 | pIC50 [28]: < 5.70 | pIC50 [29]: < 5.70 | pIC50 [30]: < 5.70 | pIC50 [31]: < 5.70 | pIC50 [32]: < 5.70 | pIC50 [33]: < 5.70 | pIC50 [34]: < 5.70 | pIC50 [35]: < 5.70 | pIC50 [36]: < 5.70 | pIC50 [37]: < 5.70 | pIC50 [38]: […] | pIC50 [39]: < 5.70 | pIC50 [40]: < 5.70 | pIC50 [41]: < 5.70 | pIC50 [42]: < 5.70 | pIC50 [43]: < 5.70 | pIC50 [44]: < 5.70 | pIC50 [45]: < 5.70 | pIC50 [46]: < 5.70 | pIC50 [47]: < 5.70 | pIC50 [48]: < 5.70 | pIC50 [49]: < 5.70 | pIC50 [50]: < 5.70 | pIC50 [51]: < 5.70 | pIC50 [52]: < 5.70 | pIC50 [53]: < 5.70 | pIC50 [54]: < 5.70 | pIC50 [55]: < 5.70 | pIC50 [56]: < 5.70 | pIC50 [57]: < 5.70 | pIC50 [58]: < 5.70 | pIC50 [59]: < 5.70 | pIC50 [60]: < 5.70 | pIC50 [61]: < 5.70 | pIC50 [62]: < 5.70 | pIC50 [63]: < 5.70 | pIC50 [64]: < 5.70 | pIC50 [65]: < 5.70 | pIC50 [66]: < 5.70
